We go through 16 molecules from patent publication US10308643B2, “Heterocyclic compound” (Takeda Pharmaceutical Company Limited, priority 2015, dated 2019).

Structures are written as SMILES.

Format in all cases: biochemical
One experiment deals with T1, HDAC1 enzyme (Homo sapiens, UniProt Q13547).
T1 construct: transducing full length HDAC1 and HDAC6 genes into Sf-9 insect cells; GST; purchased SignalChem; host or cells: Sf-9 insect cells
The experiment can be described thus: HDAC1/6 Enzyme Inhibitory Assay (HDAC-Glo I/II Assay kit), HDAC1. The conditions noted are these: 1 μM test compound, wells without enzyme = 100% inhibition; for inhibition at 1 µM: read-out: HDAC1 inhibitory rate (%) (1 μM). Summed up: (§1)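 Full-length human HDAC1 or HDAC6, expressed in Sf-9 cells and GST-purified, was preincubated with compound for 60 min at room temperature in Tris-HCl pH 7.5 buffer with MgCl2, KCl, NaCl, glutathione and Tween-20. HDAC-Glo substrate-developer was then added, and luminescence was read after 20 min. Inhibition was referenced to no-enzyme wells as 100%.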

The target of the next experiment is T2, HDAC6 enzyme (Homo sapiens, UniProt Q9UBN7).
T2 construct: transducing full length HDAC1 and HDAC6 genes into Sf-9 insect cells; GST; purchased SignalChem; host or cells: Sf-9 insect cells
T2 sequence (Q9UBN7 1-1215): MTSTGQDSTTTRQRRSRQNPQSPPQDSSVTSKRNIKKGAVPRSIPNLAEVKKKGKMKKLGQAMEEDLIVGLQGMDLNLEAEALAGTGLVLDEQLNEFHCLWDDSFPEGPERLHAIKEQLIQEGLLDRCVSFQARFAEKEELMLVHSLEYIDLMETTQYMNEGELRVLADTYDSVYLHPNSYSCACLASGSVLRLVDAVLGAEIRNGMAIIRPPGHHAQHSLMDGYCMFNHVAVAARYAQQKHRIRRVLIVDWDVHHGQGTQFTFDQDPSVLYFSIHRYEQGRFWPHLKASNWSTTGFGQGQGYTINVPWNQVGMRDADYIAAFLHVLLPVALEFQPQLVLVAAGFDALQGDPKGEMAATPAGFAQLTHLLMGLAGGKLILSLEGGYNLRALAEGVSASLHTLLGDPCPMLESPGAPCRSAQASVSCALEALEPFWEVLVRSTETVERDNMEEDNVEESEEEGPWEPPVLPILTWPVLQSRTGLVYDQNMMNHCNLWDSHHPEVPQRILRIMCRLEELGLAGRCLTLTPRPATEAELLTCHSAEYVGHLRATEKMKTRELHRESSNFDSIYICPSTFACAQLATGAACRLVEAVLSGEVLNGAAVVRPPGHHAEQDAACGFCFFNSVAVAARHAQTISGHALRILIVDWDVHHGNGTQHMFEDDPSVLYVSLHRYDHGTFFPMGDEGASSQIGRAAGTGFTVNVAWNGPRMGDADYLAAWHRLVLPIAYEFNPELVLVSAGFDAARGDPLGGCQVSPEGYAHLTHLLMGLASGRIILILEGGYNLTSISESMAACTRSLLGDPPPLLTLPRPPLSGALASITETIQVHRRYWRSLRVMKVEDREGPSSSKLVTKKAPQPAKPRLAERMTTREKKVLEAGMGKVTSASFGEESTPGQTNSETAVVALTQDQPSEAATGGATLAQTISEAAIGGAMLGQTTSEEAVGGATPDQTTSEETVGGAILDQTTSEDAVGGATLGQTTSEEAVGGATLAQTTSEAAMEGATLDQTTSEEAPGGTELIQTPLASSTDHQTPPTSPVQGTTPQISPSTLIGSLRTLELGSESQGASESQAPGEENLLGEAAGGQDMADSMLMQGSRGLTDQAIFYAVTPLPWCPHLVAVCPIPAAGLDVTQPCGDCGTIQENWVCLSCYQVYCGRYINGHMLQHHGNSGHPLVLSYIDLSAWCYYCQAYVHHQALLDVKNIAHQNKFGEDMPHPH
The experiment can be described thus: HDAC1/6 Enzyme Inhibitory Assay (HDAC-Glo I/II Assay kit), HDAC6. The note with it: 1 μM test compound, wells without enzyme = 100% inhibition; for inhibition at 1 µM: read-out: HDAC6 inhibitory rate (%) (1 μM). Summed up: as §1

The target in a further experiment is T3, HDAC9 enzyme (Homo sapiens, UniProt Q9UKV0).
T3 construct: transducing full length HDAC9 gene into Sf-9 insect cells; made in house; host or cells: Sf-9 insect cells
T3 sequence (Q9UKV0 whole entry, species assumed): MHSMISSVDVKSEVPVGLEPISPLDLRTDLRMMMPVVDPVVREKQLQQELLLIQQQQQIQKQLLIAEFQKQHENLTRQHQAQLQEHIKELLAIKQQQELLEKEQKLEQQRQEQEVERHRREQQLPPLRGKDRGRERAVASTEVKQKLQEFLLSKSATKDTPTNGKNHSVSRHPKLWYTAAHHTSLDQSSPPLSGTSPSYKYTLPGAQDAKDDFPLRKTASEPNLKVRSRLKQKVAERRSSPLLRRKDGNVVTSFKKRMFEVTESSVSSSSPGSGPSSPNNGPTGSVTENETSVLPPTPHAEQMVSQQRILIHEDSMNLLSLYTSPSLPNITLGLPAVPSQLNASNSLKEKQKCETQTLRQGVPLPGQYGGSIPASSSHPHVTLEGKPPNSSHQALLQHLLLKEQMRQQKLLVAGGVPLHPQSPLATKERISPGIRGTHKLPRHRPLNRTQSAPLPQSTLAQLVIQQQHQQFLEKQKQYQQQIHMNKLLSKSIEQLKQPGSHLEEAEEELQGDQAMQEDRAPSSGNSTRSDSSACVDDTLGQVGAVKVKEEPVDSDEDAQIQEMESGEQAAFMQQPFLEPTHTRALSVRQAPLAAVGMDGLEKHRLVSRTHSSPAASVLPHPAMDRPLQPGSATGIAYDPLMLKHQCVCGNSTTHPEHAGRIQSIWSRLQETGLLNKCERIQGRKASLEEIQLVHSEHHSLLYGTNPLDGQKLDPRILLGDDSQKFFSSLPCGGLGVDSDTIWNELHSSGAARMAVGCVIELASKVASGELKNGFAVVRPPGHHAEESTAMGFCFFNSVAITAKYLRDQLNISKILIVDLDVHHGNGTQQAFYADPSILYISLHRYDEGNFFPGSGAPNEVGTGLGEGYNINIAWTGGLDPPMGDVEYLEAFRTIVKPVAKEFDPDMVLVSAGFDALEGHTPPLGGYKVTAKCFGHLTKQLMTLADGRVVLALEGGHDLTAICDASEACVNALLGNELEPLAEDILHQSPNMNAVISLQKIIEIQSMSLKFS
The experiment can be described thus: HDAC9 Enzyme Inhibitory Assay (HDAC-Glo class IIa). The conditions noted are these: 1 μM test compound, wells without enzyme = 100% inhibition; for inhibition at 1 µM: read-out: HDAC9 inhibitory rate (%) (1 μM). The method in brief: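 Luminescent HDAC-Glo class IIa readout after a 20 min room-temperature reaction; relative inhibition referenced to enzyme-free wells as 100%. Test compound first preincubated 60 min with Sf-9-expressed, Ni-NTA-purified full-length HDAC9 in pH 7.5 Tris buffer containing 135 mM NaCl, 0.6 mM glutathione and 0.01% Tween-20.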

T1 sequence (Q13547 whole entry): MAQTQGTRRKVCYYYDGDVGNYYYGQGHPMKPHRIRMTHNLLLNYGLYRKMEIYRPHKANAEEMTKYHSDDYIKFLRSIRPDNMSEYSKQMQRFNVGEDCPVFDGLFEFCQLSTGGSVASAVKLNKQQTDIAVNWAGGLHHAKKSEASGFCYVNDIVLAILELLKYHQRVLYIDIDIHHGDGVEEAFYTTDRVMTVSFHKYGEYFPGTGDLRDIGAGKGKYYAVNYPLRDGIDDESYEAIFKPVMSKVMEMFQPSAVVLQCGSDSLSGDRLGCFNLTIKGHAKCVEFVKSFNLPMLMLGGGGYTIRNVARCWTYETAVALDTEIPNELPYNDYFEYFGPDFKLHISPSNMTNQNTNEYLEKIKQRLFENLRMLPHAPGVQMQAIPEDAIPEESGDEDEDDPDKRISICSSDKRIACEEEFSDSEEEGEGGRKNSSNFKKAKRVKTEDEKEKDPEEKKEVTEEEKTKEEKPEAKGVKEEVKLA

Turning to `CC(=O)N1CC(C)(C(=O)N[C@@H]2CCCC[C@H]2N2Cc3ccc(-c4noc(C(F)(F)F)n4)cc3C2=O)C1` [Example 195, 1-acetyl-3-methyl-N-((1R,2R)-2-(1-oxo-6-(5-(trif1uoromethyl)-1,2,4-oxadiazol-3-yl)-1,3-dihydro-2H-isoindol-2-yl)cyclohexyl)azetidine-3-carboxamide], the inhibition at 1 µM at HDAC1 enzyme stood at 1%; at HDAC6 enzyme, 98%; on HDAC9 enzyme, 57%.
The corresponding values for `O=C1c2cc(-c3noc(C(F)(F)F)n3)ccc2CN1[C@@H]1CCCC[C@H]1NC(=O)C1(O)CCC1` [Example 173, 1-hydroxy-N-((1R,2R)-2-(1-oxo-6-(5-(trifluoromethyl)-1,2,4-oxadiazol-3-yl)-1,3-dihydro-2H-isoindol-2-yl)cyclohexyl) cyclobutanecarboxamide] are 5%, 100% and 42%.
The corresponding values for `CN(C(=O)N[C@@H]1CCCC[C@H]1N1Cc2ccc(-c3noc(C(F)(F)F)n3)cc2C1=O)C1CC1` [Example 155, 1-cyclopropyl-1-methyl-3-((1R,2R)-2-(1-oxo-6-(5-(trifluoromethyl)-1,2,4-oxadiazol-3-yl)-1,3-dihydro-2H-isoindol-2-yl)cyclohexyl)urea] are 14%, 100% and 54%.
The like results for `CC1(C(=O)N[C@@H]2CCC[C@H]2N2Cc3ccc(-c4noc(C(F)(F)F)n4)cc3C2=O)COC1` [Example 151, 3-methyl-N-((1R,2R)-2-(1-oxo-6-(5-(trifluoromethyl)-1,2,4-oxadiazol-3-yl)-1,3-dihydro-2H-isoindol-2-yl)cyclopentyl)oxetane-3-carboxamide] were, in that order, 16%, 35% and 42%.
With `O=C(N[C@@H]1CCCC[C@H]1N1Cc2ccc(-c3noc(C(F)(F)F)n3)cc2C1=O)C1CCOCC1` [Example 37, N-((1R,2R)-2-(1-oxo-6-(5-(trifluoromethyl)-1,2,4-oxadiazol-3-yl)-1,3-dihydro-2H-isoindol-2-yl)cyclohexyl)tetrahydro-2H-pyran-4-carboxamide], the inhibition at 1 µM on HDAC1 enzyme turned out to be 1%; on HDAC6 enzyme, 96%; at HDAC9 enzyme, 19%.
Turning to `O=C1CCCN1[C@@H]1CCOC[C@H]1N1Cc2ccc(-c3noc(C(F)(F)F)n3)cc2C1=O` [Example 182, 2-((3S,4R)-4-(2-oxopyrrolidin-1-yl)tetrahydro-2H-pyran-3-yl)-6-(5-(trifluoromethyl)-1,2,4-oxadiazol-3-yl)isoindolin-1-one], the “HDAC1 inhibitory rate (%) (1 μM)” value at HDAC1 enzyme came out at 10%. Moreover, the “HDAC6 inhibitory rate (%) (1 μM)” value at HDAC6 enzyme is 98%. Also, at HDAC9 enzyme, the “HDAC9 inhibitory rate (%) (1 μM)” value was 71%.
For `O=C(N[C@@H]1CCCC[C@H]1N1Cc2ccc(-c3noc(C(F)(F)F)n3)cc2C1=O)[C@@H]1CC1(F)F` [Example 147, (1S)-2,2-difluoro-N-((1R,2R)-2-(1-oxo-6-(5-(trifluoromethyl) -1,2,4-oxadiazol-3-yl)-1,3-dihydro-2H-isoindol-2-yl)cyclohexyl)cyclopropanecarboxamide], the inhibition at 1 µM at HDAC1 enzyme was 6%; at HDAC6 enzyme it was 99%; at HDAC9 enzyme, 51%.
For `CC1(C(=O)N[C@@H]2CCCC[C@H]2N2Cc3ccc(-c4noc(C(F)(F)F)n4)cc3C2=O)CC1(F)F` (stereo partly drawn) [Example 171, 2,2-difluoro-1-methyl-N-((1R,2R) 2-(1-oxo-6-(5-(trifluoromethyl)-1,2,4-oxadiazol-3-yl)-1,3-dihydro-2H-isoindol-2-yl)cyclohexyl)cyclopropanecarboxamide], the “HDAC1 inhibitory rate (%) (1 μM)” value on HDAC1 enzyme is 9%. At HDAC6 enzyme, the “HDAC6 inhibitory rate (%) (1 μM)” value was 98%. Further, the “HDAC9 inhibitory rate (%) (1 μM)” value on HDAC9 enzyme is 67%.
As for `O=C(N[C@@H]1CCOC[C@H]1N1Cc2ccc(-c3noc(C(F)(F)F)n3)cc2C1=O)[C@H]1CCOC1` [Example 208, (3S)-N-((3S,4R)-3-(1-oxo-6-(5-(trifluoromethyl)-1,2,4-oxadiazol-3-yl)-1,3-dihydro-2H-isoindol-2-yl)tetrahydro-2H-pyran-4-yl)tetrahydrofuran-3-carboxamide], the inhibition at 1 µM at HDAC1 enzyme was 4%; on HDAC6 enzyme, 98%; at HDAC9 enzyme, 53%.
The corresponding values for `O=C(c1ccccc1)N1C[C@@H](N2Cc3ccc(-c4noc(C(F)(F)F)n4)cc3C2=O)[C@H](c2ccccc2)C1` (relative stereo) [Example 10, trans-2-(1-benzoyl-4-phenylpyrrolidin-3-yl)-6-(5-(trifluoromethyl)-1,2,4-oxadiazol-3-yl)isoindolin-1-one] are 63%, 96% and 96%.
The like results for `O=C1CCCN1c1ccccc1N1Cc2ccc(-c3noc(C(F)(F)F)n3)cc2C1=O` [Example 184, 2-(2-(2-oxopyrrolidin-1-yl)phenyl)-6-(5-(trifluoromethyl)-1,2,4-oxadiazol-3-yl)isoindolin-1-one] were, in that order, 7%, 98% and 56%.
The like results for `N[C@@H]1CCC[C@H]1N1Cc2ccc(-c3noc(C(F)(F)F)n3)cc2C1=O` [Example 142, 2-((1R,2R)-2-aminocyclopentyl)-6-(5-(trifluoromethyl)-1,2,4-oxadiazol-3-yl)isoindolin-1-one] were, in that order, -6%, -3% and 54%.
On to `CC(C)(C)N1CC(C(=O)N[C@@H]2CCCC[C@H]2N2Cc3ccc(-c4noc(C(F)(F)F)n4)cc3C2=O)C1` [Example 114, 1-tert-butyl-N-((1R,2R)-2-(1-oxo-6-(5-(trifluoromethyl)-1,2,4-oxadiazol-3-yl)-1,3-dihydro-2H-isoindol-2-yl)cyclohexyl)azetidine-3-carboxamide], for which the inhibition at 1 µM came to 1% at HDAC1 enzyme, 39% on HDAC6 enzyme and 11% on HDAC9 enzyme.
With `O=C1c2cc(-c3noc(C(F)(F)F)n3)ccc2CN1[C@@H]1CCCC[C@H]1c1ccccc1` (relative stereo) [Example 17, trans-2-(2-phenylcyclohexyl)-6-(5-(trifluoromethyl)-1,2,4-oxadiazol-3-yl)isoindolin-1-one], the inhibition at 1 µM on HDAC1 enzyme was found to be 52%; on HDAC6 enzyme, 98%; on HDAC9 enzyme, 85%.
The like results for `O=C(N[C@H]1COCC[C@@H]1N1Cc2ccc(-c3noc(C(F)(F)F)n3)cc2C1=O)[C@@H]1CC1(F)F` [Example 220, (1S)-2,2-difluoro-N-((3R,4S)-4-(1-oxo-6-(5-(trifluoromethyl)-1,2,4-oxadiazol-3-yl)-1,3-dihydro-2H-isoindol-2-yl)tetrahydro-2H-pyran-3-yl)cyclopropanecarboxamide] were, in that order, 23%, 84% and 65%.
The like results for `CC(C)(O)CC(=O)N[C@@H]1CCCC[C@H]1N1Cc2ccc(-c3noc(C(F)(F)F)n3)cc2C1=O` [Example 96, 3-hydroxy-3-methyl-N-((1R,2R)-2-(1-oxo-6-(5-(trifluoromethyl)-1,2,4-oxadiazol-3-yl)-1,3-dihydro-2H-isoindol-2-yl)cyclohexyl)butanamide] were, in that order, 10%, 101% and 50%.
